Reference: US20250243174A1, “ANTITUMORAL COMPOUNDS” (PHARMA MAR, S.A., priority 2021, published 2025)
Like-named read-outs stand apart in the source and are kept apart here.

What was measured:
MDA-MB-231 = test: SRB colorimetric cytotoxicity assay, MDA-MB-231; assay type: cell-based; settings: Homo sapiens, read-out: GI50 (M) MDA-MB-231
From the text: The aim of this assay is to evaluate the in vitro cytostatic (ability to delay or arrest tumor cell growth) or cytotoxic (ability to kill tumor cells) activity of the samples being tested.
A colorimetric assay, using sulforhodamine B (SRB) reaction has been adapted to provide a quantitative measurement of cell growth and viability (using the technique developed by Skehan et al., J. Natl. Cancer Inst. 1990 and following the protocol detailed in V. Vichai and K. Kirtikara (2006) Nature Protoc. 1, 1112-1116.)
This form of assay employs 96-well cell culture microplates. All the cell lines used in this study were obtained from the American Type Culture Collection (ATCC), unless otherwise indicated, and derive from different types of human cancer.
Cells were maintained in Dulbecco's Modified Eagle Medium (DMEM) (for A549, HT-29 and MDA-MB-231) or RPMI (for PSN-1) supplemented with 10% Fetal Bovine Serum (FBS), 2 mM L-glutamine, 100 U/mL penicillin and 100 U/mL streptomycin at 37° C., 5% CO2 and 98% humidity. For the experiments, cells were harvested from subconfluent cultures using trypsinization and resuspended in fresh medium before counting and plating.
Cells were seeded in 96 well microtiter plates, at 5×10^3 cells per well in aliquots of 150 μL, and allowed to attach to the plate surface for 18 hours (overnight) in drug free medium. After that, one control (untreated) plate of each cell line was fixed (as described below) and used for time zero reference value. Culture plates were then treated with test compounds (50 μL aliquots of 4× concentrated compound stock solutions made in complete culture medium) using ten serial dilutions (concentrations ranging from […]) and triplicate cultures (final concentration of DMSO being 1%). After 72 hours treatment, the antitumor effect was measured by using the SRB methodology: Briefly, cells were washed twice with PBS, fixed for 15 min in 1% glutaraldehyde solution at room temperature, rinsed twice in PBS, and stained in 0.4% SRB solution for 30 min at room temperature. Cells were then rinsed several times with 1% acetic acid solution and air-dried at room temperature. SRB was then extracted in 10 mM trizma base solution and the absorbance measured in an automated spectrophotometric plate reader at 490 nm. Effects on cell growth and survival were estimated by applying the NCI algorithm (Boyd M R and Paull K D. Drug Dev. Res. 1995, 34, 91-104).
Using the mean±SD of triplicates, a dose-response curve was automatically generated using nonlinear regression analysis to a 4-parameter logistic curve. Three reference parameters were calculated (NCI algorithm) by automatic interpolation: GI50=compound concentration that produces […] cell growth inhibition, as compared to control cultures.

[1] = MTD (Maximum Tolerated Dose) determination; settings: Athymic Nude-Fox1 nu/nu, mouse, in vivo; iv, single dose; female athymic nude mice
Experimental: Female Athymic Nude-Fox1 nu/nu mice (Envigo) were utilized for all experiments. Animals (N=10/cage) were housed in individually ventilated cages (Sealsafe Plus®, Techniplast S.P.A.), on a 12-hour light-dark cycle at 21-23° C. and 40-60% humidity. Mice were allowed free access to irradiated standard rodent diet (Tecklad 2914C) and sterilized water. Animals were acclimated for five days prior to being individually tattoo-identified. Animal protocols were reviewed and approved according to the regional Institutional Animal Care and Use Committees.
Mice were randomly allocated into experimental groups and intravenously administered, once for the MTD (Maximum Tolerated Dose) determination or one administration a week during three consecutive weeks, for the MTMD (Maximum Tolerated Multiple Dose) determination study. The animals were administered with white formulation or with compound dissolved in the experimental formulation at different concentrations. The volume administered was always 10 mL/kg. Once administered, animals were monitored for clinical signs of systemic toxicity, changes in body weight and mortality up to 14 days after the administration.

Row | SMILES | GI50 (MDA-MB-231; MDA-MB-231, 72 h) | MTD at 14 days [1] | GI50 (MDA-MB-231; MDA-MB-231, 72 hours treatment, SRB) | MTD [1]
1 | COC1=CC[C@@H]([C@@H](C)/C=C(C)/C=C\C=C/C(=O)N[C@H](C(=O)N/C=C\C[C@H](CC=C(C)C)OC(N)=O)C(C)(C)C)OC1=O [Compound 3] | 9.05e-11 M | 1 mg/kg |  | 
2 | COC1=CC[C@@H]([C@@H](C)/C=C(C)/C=C\C=C/C(=O)N[C@H](C(=O)N/C=C\C[C@H](C/C=C(\C)F)OC(N)=O)C(C)(C)C)OC1=O [Compound 2] | 4.87e-11 M | 2 mg/kg |  | 
3 | C/C=C\C[C@@H](C/C=C\NC(=O)[C@@H](NC(=O)\C=C/C=C\C(C)=C\[C@H](C)[C@@H]1CC=C(OC)C(=O)O1)C(C)(C)C)OC(N)=O [PM060184, reference compound] |  |  | 2.07e-10 M | 16 mg/kg
